Several values for one entry are separate records, joined by “and”; a condition that tells them apart may be missing. Equal entries are not always repeated. Structures can show the parent of a compound that is named as a salt. Where two headings read alike, the source gives them in different places.
How the values were obtained:
[1] = tested on: Sprague-Dawley rats; experiment: Open field locomotor activity; assay type: in vivo; conditions: rat, 30 min after injection, 10 min test
[2] = tested on: opiate receptor binding sites labeled by [^3H]-naloxone; experiment: [3H]-naloxone binding competition assay in rat forebrain membranes
[3] = 100 mg/kg, sc; ref Pohland et al., 1971; cited from earlier work
[4] = Straub tail observation; assay type: in vivo; conditions: doses used in the behavioral studies
[5] = tested on: 129SvEv;C57Bl/6J F1 hybrid mice; experiment: Forced swim test; assay type: in vivo, mouse; conditions: 6 min test; for immobility time vs vehicle: mouse
[6] = tested on: 129SvEv;C57Bl/6J F1 hybrid mice; experiment: Marble burying; assay type: in vivo; conditions: mouse, 10 min before 15 min test
[7] = tested on: rat α3β4 nAChRs; conditions: 2001, cited from earlier work; for block of rat α3β4 nAChR channels: ref Xiao et al.
[8] = tested on: Sprague-Dawley rats; experiment: Forced swim test; assay type: in vivo; conditions: rat, three doses, 300 sec test
[9] = molecular target: human α3β4 nAChRs (Homo sapiens, UniProt P30926+P32297); experiment: 86Rb+ efflux assay, block of nicotine-stimulated channel function
Sequence of human α3β4 nAChRs (P32297 32-505): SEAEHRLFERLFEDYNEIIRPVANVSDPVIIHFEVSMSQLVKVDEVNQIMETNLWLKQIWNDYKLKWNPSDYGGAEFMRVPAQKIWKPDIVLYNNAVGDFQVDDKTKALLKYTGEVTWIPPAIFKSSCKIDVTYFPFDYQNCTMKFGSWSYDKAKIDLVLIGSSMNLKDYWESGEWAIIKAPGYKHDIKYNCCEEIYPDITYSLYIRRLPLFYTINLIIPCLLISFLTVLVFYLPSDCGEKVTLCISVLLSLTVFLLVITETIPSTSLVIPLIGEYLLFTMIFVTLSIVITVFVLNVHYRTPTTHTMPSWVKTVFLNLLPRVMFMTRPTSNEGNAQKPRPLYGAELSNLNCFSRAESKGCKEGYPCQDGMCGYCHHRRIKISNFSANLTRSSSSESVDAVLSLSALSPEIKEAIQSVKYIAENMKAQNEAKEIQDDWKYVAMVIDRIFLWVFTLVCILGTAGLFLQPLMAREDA
Sequence of human α3β4 nAChRs (P30926 22-498): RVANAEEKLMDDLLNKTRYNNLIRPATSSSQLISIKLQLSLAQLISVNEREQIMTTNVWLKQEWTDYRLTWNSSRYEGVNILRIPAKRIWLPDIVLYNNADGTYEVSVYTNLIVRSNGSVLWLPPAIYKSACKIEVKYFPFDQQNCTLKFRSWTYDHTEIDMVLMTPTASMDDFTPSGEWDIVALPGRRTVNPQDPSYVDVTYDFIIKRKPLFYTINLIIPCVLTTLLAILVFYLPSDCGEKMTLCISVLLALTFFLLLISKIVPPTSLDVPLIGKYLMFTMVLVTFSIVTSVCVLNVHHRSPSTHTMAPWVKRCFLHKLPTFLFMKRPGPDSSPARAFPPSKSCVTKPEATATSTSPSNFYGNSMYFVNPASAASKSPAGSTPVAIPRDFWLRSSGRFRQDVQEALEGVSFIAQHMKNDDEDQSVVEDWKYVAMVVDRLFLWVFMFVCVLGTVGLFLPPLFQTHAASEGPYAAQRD

[10] = tested on: 129SvEv;C57Bl/6J F1 hybrid mice; experiment: Home cage locomotor activity; assay type: in vivo; conditions: mouse, 0.5, 1, 5, 10 mg/kg i.p., 60 min
[11] = tested on: Sprague-Dawley rats; assay type: in vivo; conditions: rat
[12] = [3H]-naloxone sites, rat forebrain

For “2-ethylidene-1,5,dimethyl-3,3-diphenylpyrrolidine perchlorate [EDDP]”, the “open field locomotor activity” value ([1]; 10mg/kg s.c.) was “neither EDDP nor EMDP significantly altered open field locomotor activity”, the “fold lower affinity than methadone” value [2, 12] was ~ 83 fold and the “fraction of binding sites competed for” value [2, 12] was “nearly all of the binding sites”. For the same compound, the “analgesia in the tail-flick assay” value [3] was “neither compound produces analgesia”, the Straub tail effects [4] was “failed to observe any Straub tail effects” and the “duration of immobility vs vehicle” value ([5]; mouse, 1, 5, or 10 mg/kg i.p.) was “did not produce a significant effect on duration of immobility”. The “marbles buried vs vehicle” value ([6]; 5 mg/kg i.p.) was “buried significantly fewer marbles”, the “marbles buried vs vehicle” value ([6]; 10 mg/kg i.p.) was “did not reach statistical significance” and the “block of rat α3β4 nAChR channels” value [7] was “potently block”. For the same compound, the “immobile time vs vehicle” value ([8]; 10 mg/kg s.c.) was “without effect”.
In the case of CNC1=Nc2ccc(Cl)cc2C(c2ccccc2)=[N+]([O-])C1 [CDP, chlordiazepoxide HCl, reference compound], the “marbles buried vs vehicle” value ([6]; 10 mg/kg i.p.) is reported as “buried significantly fewer marbles”.
In the case of CCC1=NC(C)CC1(c1ccccc1)c1ccccc1.Cl (centres unmarked) [EMDP, 2-ethyl-5-methyl-3,3,-diphenyl-1-pyrroline hydrochloride], the “open field locomotor activity” value ([1]; 5mg/kg s.c.) is reported as “neither EDDP nor EMDP significantly altered open field locomotor activity”, the Ki ([2]; 2 nM [3H]-naloxone, rat forebrain, single-site fit) is reported as 21 µM and the “fold lower affinity than methadone” value [2, 12] is reported as 1900 fold and ~ 1900 fold. For the same compound, the “sites competed for” value ([2]; even at a concentration of 100 μM) was 60%, the “potency relative to mecamylamine in blocking human α3β4 nAChRs” value [9] was “only half as potent as mecamylamine” and the “analgesia in the tail-flick assay” value [3] was “neither compound produces analgesia”. The Straub tail effects [4] was “failed to observe any Straub tail effects”, the “immobility time vs vehicle” value ([5]; 5 mg/kg i.p.) was “did not affect immobility time” and the “immobility time vs vehicle” value ([5]; 10 mg/kg i.p.) was “significantly reduced it”. For the same compound, the “marbles buried vs vehicle” value ([6]; 1 mg/kg i.p.) was “not at the 1 mg/kg dose”, the “marbles buried vs vehicle” value ([6]; 5 mg/kg i.p.) was “buried significantly fewer marbles” and the “marbles buried vs vehicle” value ([6]; 10 mg/kg i.p.) was “buried significantly fewer marbles”. For the same compound, the “potency relative to mecamylamine in blocking rat α3β4 nAChRs” value ([7]; ref Xiao et al) was “only one-sixth as potent”, the “block of rat α3β4 nAChR channels” value [7] was “potently block” and the overall locomotor activity [10] was “did not significantly affect overall locomotor activity”. For the same compound, the “immobile time vs vehicle” value ([8]; 10 mg/kg s.c.) was “reduced immobile time”, the “immobile time vs vehicle” value ([8]; 20 mg/kg s.c.) was “reduced immobile time” and the “ptosis over 3h observation” value ([11]; 20 mg/kg) was “ptosis was not apparent at any time”. For the same compound, the “ptosis observed during forced swim tests” value ([11]; 10 and 20 mg/kg) was “did not produce ptosis”.
With CNC1(C)C2CCC(C2)C1(C)C (centres unmarked) [Mecamylamine, Mecamylamine HCl] the “immobile time vs vehicle” value ([8]; 5 mg/kg s.c.) was “reduced immobile time”, the “onset of ptosis after injection” value ([11]; 5 mg/kg) was no more than 15 min and the “ptosis observed during forced swim tests” value ([11]; 5 mg/kg) was “obvious ptosis”. For the same compound, the “ptosis over 3h observation” value ([11]; 5 mg/kg, significant at 30 and 45 min, not at 3 h) was “produced ptosis in a time-dependent manner”.
For CN[C@H]1CC[C@@H](c2ccc(Cl)c(Cl)c2)c2ccccc21 [sertraline, sertraline HCl, reference compound], the “immobile time vs vehicle” value ([8]; 20 mg/kg s.c.) was “significantly reduced immobile time”.
